Measurements from article PMC8264259, “A Novel Ruthenium(II) Complex With Lapachol Induces G2/M Phase Arrest Through Aurora-B Kinase Down-Regulation and ROS-Mediated Apoptosis in Human Prostate Adenocarcinoma Cells” (Frontiers in Oncology, 2021).
Counter-ions that a name gives are not always drawn.

Key:
[1] = set-up: method as in PMID 30776556; details: previously tested, not tested in the present work; read-out: IC50 (weak cytotoxicity); cited from earlier work
[2] = system: FGH (human mouth fibroblast); test: Alamar blue cytotoxicity assay, FGH non-cancer cells; assay type: cell-based; details: 24-h incubation, mean ± S.E.M.
Description: (§1) Human lung carcinoma (A549, ATCC® CCL-185™), human hepatocellular carcinoma (HepG2, ATCC® HB-8065™), and human breast adenocarcinoma (MDA-MB-231, ATCC® HTB-26™) were obtained from American Type Cell Collection (ATCC). Human melanoma (A-375, BCRJ-0278), Human colorectal adenocarcinoma (Caco-2, BCRJ 0059), human prostate adenocarcinoma (DU-145, BCRJ-0078, and PC-3, BCRJ-0269), human mouth fibroblast (FGH, BCRJ-0089), and human prostate epithelial cells (PNT-2, BCRJ-0366) were obtained from Rio de Janeiro Cells Bank (BCRJ). The cells A549, A-375, Caco-2, DU-145, HepG2, MDA-MB-231, and FGH were cultured in Dulbecco’s Modified Eagle’s Medium (DMEM, Gibco-Invitrogen®), PC-3 and PNT-2 cells were grown in Roswell Park Memorial Institute Medium (RPMI-1640, Gibco-Invitrogen®). Both mediums were supplemented according to the needs of each lineage, as recommended by its cell banks with 2 mM L-glutamine (Gibco-Invitrogen®), 10% or 20% fetal bovine serum (Gibco-Invitrogen®), 1% antibiotic-antimycotic solution (5 mg/ml penicillin, 5 mg/ml streptomycin, and 10 mg/ml neomycin, Gibco-Invitrogen®), and 3.7 g/L of NaHCO3 (Sigma-Aldrich). All cell lines were cultured in flasks at 37°C in 5% CO2 and 96% of relative humidity according to the procedures proposed by ([31]), and a mycoplasma stain kit (Sigma-Aldrich) was used to confirm the use of cells devoid of contamination. The assays were conducted between the third and the seventh-cell passage with sub-cultures every 3 to 4 days to maintain exponential growth. The cell viability was checked using the trypan blue dye exclusion assay for all experiments where over 95% of the cells were viable at the beginning of the tests.
(§2) The in vitro antiproliferative activity was quantified using the Alamar blue® assay, according to the method reported by ([32]). Cells were seeded in 96-well plates for all experiments (1.5 × 10^4 cells/well). After 24 h, the complexes were dissolved in DMSO and added to each well and incubated for 24 h. Dilutions of the complexes were prepared to obtain concentrations ranging from 0.3 to 100 μM. […] DMSO (0.1% v/v) was used as the vehicle control. Following 24 h of incubation, 50 μl of Alamar blue® (resazurin at 0.01% w/v, Sigma-Aldrich) was added to each well, and the plates were incubated, at 37°C, in the dark. Fluorescence reading was performed in a Synergy H1 Fluorescence Spectrophotometer (BioTek®), using excitation and emission filters at wavelengths of 560 and 590 nm, respectively. The fluorescence intensity was measured in arbitrary fluorescence units (AFU) and the AFU of untreated cells (CTL) was considered 100%. The cytotoxic effects of the compounds were estimated in terms of cell proliferation inhibition (%) and expressed as half-maximal inhibitory concentration (IC50). The cell proliferation inhibition percentage of cells exposed to treatments was calculated following: % Inhibition = 100 − (AFU of treated well/AFU of control well) × 100). The IC50 values were calculated from the cell proliferation inhibition percentage by nonlinear regression method using CompusSyn® Software.

[3] = system: DU-145 (human prostate adenocarcinoma); test: Alamar blue cytotoxicity assay, DU-145; assay type: cell-based; details: for IC50: DU-145, Alamar blue, 24-h incubation, mean ± S.E.M.
Description: as §1, §2

[4] = system: A549 (human lung carcinoma); test: Alamar blue cytotoxicity assay, A549; assay type: cell-based; details: for IC50: A549, Alamar blue, 24-h incubation, mean ± S.E.M.
Description: as §1, §2

DU-145 cells [5] = test: Clonogenic assay; assay type: cell-based, human; details: 24 h treatment, colonies after 7 days
Protocol: The clonogenic assay was performed in accordance with the guidelines of ([34]). […] DMSO (0.1% v/v) was used as the vehicle control. After 24 h, the cells were washed with PBS (Gibco-Invitrogen®) and harvested by trypsinization. Cells were counted using a Neubauer chamber and replated then on cell culture dishes of 21.5 cm^2 in a density of 200 cells per culture dish for each treatment in triplicate. After 7 days, cells were fixed in ice-cold methanol: acetic acid: distilled water (1:1:8), air-dried, and stained with crystal violet (0.5% w/v, Sigma-Aldrich) for 20 min. Colonies with at least 50 cells were counted. Plating efficiency (PE) of DU-145 cells was calculated by the ratio of the number of colonies observed after 7 days of incubation to the number of cells seeded (two hundred). The average of colonies in control was considered as 100%, and the number of colonies that arise after treatment of cells is called the surviving fraction (SF), obtained by:
SF = Numberofcoloniescountedineachtreatment/Numberofcoloniescountedincontrol x PE × 100

DU-145 cells [6] = test: Annexin-V/PI staining assay (flow cytometry); assay type: cell-based, human; details: DU-145, 25 μM (~IC50), 24 h
Protocol: The measurement of cell death was performed by the guidelines of ([35]). Detection of apoptotic/necrotic cells was determined by flow cytometry using the Alexa Fluor® 488 Annexin V/PI (Thermo Fischer Scientific), and the analyses were performed according to the manufacturer’s instructions. […] DMSO (0.1% v/v) was used as the vehicle control. Following 24 h of incubation, the cells were collected with Accutase® (Gibco-Invitrogen®), washed with PBS and resuspended in 200 μl of cold annexin-binding buffer. Next, 10 μl of Alexa Fluor® was added to Annexin V (50 μl/ml) staining buffer, and the mixture was incubated in the dark at 4°C for 15 min. Previously, the analyses, 100 μl of PI (2 μg/ml) was added, and then, the fluorescence was measured by flow cytometry in a FACSCanto flow cytometer (BD Biosciences, USA) using the Diva software. Ten thousand events were evaluated per experiment, and cellular debris was omitted from the analysis.

[7] = system: HepG2 (human hepatocellular carcinoma); test: Alamar blue cytotoxicity assay, HepG2; assay type: cell-based; details: for IC50: HepG2, Alamar blue, 24-h incubation, mean ± S.E.M.
Description: as §1, §2

[8] = system: MDA-MB-231 (human breast adenocarcinoma); test: Alamar blue cytotoxicity assay, MDA-MB-231; assay type: cell-based; details: for IC50: MDA-MB-231, Alamar blue, 24-h incubation, mean ± S.E.M.
Description: as §1, §2

[9] = system: PNT-2 (human prostate epithelial cells); test: Alamar blue cytotoxicity assay, PNT-2 non-cancer cells; assay type: cell-based; details: mean ± S.E.M.
Description: as §1, §2

[10] = system: A-375 (human malignant melanoma); test: Alamar blue cytotoxicity assay, A-375; assay type: cell-based; details: for IC50: A-375, Alamar blue, 24-h incubation, mean ± S.E.M.
Description: as §1, §2

[11] = system: PC-3 (human prostate adenocarcinoma); test: Alamar blue cytotoxicity assay, PC-3; assay type: cell-based; details: for IC50: PC-3, Alamar blue, 24-h incubation, mean ± S.E.M.
Description: as §1, §2

DU-145 MCTSs = test: 3D multicellular tumor spheroids (MCTSs) culture; assay type: cell-based, human; details: 3D spheroids, 24 h, Alamar blue; read-out: IC50 against the DU-145 MCTSs
Protocol: Multicellular tumor spheroids (MCTSs) were obtained according to the method reported by ([33]). Briefly, 200 μl of a solution of DU-145 cells (2.0 × 10^3 cells/well) were inserted in agarose-coated 96-well plates (1.5% w/v) and cultured in complete medium plus 3% Matrigel® (Corning). DU-145-MCTSs with stable structures had formed after five days. […] Negative control received the vehicle (DMSO 0.1% v/v) that was used for diluting the compounds tested. Finally, the MCTS proliferation inhibition (%) and IC50 were determined by Alamar blue® assay as described above. To investigate morphological changes other MCTSs were treated with 0.25, 0.5, 1.0, 1.5, and 2.0 μM of complex (2) and examined for 7 days. Spheroid integrity and diameter of MCTSs were analyzed by phase-contrast microscopy (Inverted Trinocular Microscope Opton TNB-O5T-PL) using AxioVision LE software (Carl Zeiss, Germany).

[12] = system: Caco-2 (human colorectal adenocarcinoma); test: Alamar blue cytotoxicity assay, Caco-2; assay type: cell-based; details: for IC50: Homo sapiens, Caco-2, Alamar blue, 24-h incubation, mean ± S.E.M.
Description: as §1, §2

[13] = Homo sapiens, PNT2, 24-h incubation

In the case of [Cl][Ru][Cl].c1ccc(-c2ccccn2)nc1.c1ccc(P(CP(c2ccccc2)c2ccccc2)c2ccccc2)cc1 [cis-[RuCl2(dppm)(bipy)]], the IC50 [1] is listed as over 100 µM.

N.N.[Cl][Pt][Cl] [CIS, Cisplatin, reference compound] gave an IC50 [2] of 11.4 ± 0.5 µM, an IC50 [3] of 24.3 ± 1.3 µM and an IC50 [4] of 11.9 ± 0.6 µM. For the same molecule, the “survival fraction (SF)” value (DU-145 cells [5]; DU-145, 25 μM) was 69.1%, the “population of apoptotic cells” value (DU-145 cells [6]) was 19.5% and the IC50 [7] was 14.1 ± 0.5 µM. The IC50 [8] was 22.1 ± 1.7 µM, the IC50 ([9]; 24-h incubation) was 9.5 ± 0.3 µM and the IC50 [10] was 16.5 ± 2.3 µM. The IC50 [11] was 10.8 ± 1.1 µM and the IC50 (DU-145 MCTSs) was 62.6 µM.

CC(C)=CCC1=C(O)C(=O)c2ccccc2C1=O [Lp, 2-hydroxy-3-(3-methylbut-2-en-1-yl)naphthalene-1,4-dione, reference compound] gave an IC50 ([2]; Homo sapiens, Fibroblast) of over 100 µM, an IC50 ([3]; Homo sapiens) of over 100 µM and an IC50 ([4]; Homo sapiens) of over 100 µM. The IC50 ([7]; Homo sapiens) was over 100 µM, the IC50 ([8]; Homo sapiens) was over 100 µM and the IC50 [9, 13] was over 100 µM. It also gave an IC50 ([10]; Homo sapiens) of over 100 µM, an IC50 [12] of over 100 µM and an IC50 ([11]; Homo sapiens) of over 100 µM.

In the case of [Cl][Ru][Cl].c1ccc(P(CP(c2ccccc2)c2ccccc2)c2ccccc2)cc1.c1cnc2c(c1)ccc1cccnc12 [cis-[RuCl2(dppm)(phen)]], the IC50 [1] is listed as over 100 µM.

For COc1cccc2c1C(=O)c1c(O)c3c(c(O)c1C2=O)C[C@@](O)(C(=O)CO)C[C@@H]3O[C@H]1C[C@H](N)[C@H](O)[C@H](C)O1 [DXR, doxorubicin hydrochloride, reference compound], the IC50 ([2]; Homo sapiens, Fibroblast) was 2.6 ± 0.6 µM, the IC50 ([3]; Homo sapiens) was 2.3 ± 0.5 µM and the “Selectivity index (SI)” value ([3]; SI = IC50[FGH]/IC50[DU-145]) was 1.1. The “Selectivity index (SI)” value ([3]; SI = IC50[PNT-2]/IC50[DU-145]) was 1.4, the IC50 ([4]; Homo sapiens) was 1.9 ± 0.4 µM and the “Selectivity index (SI)” value ([4]; SI = IC50[FGH]/IC50[A549]) was 1.4. For the same molecule, the “Selectivity index (SI)” value ([4]; SI = IC50[PNT-2]/IC50[A549]) was 1.7, the “survival fraction (SF)” value (DU-145 cells [5]; DU-145, 2.5 μM) was 18.7% and the IC50 ([7]; Homo sapiens) was 2.4 ± 0.8 µM. For the same molecule, the “Selectivity index (SI)” value ([7]; SI = IC50[FGH]/IC50[HepG2]) was 1.1, the “Selectivity index (SI)” value ([7]; SI = IC50[PNT-2]/IC50[HepG2]) was 1.3 and the IC50 ([8]; Homo sapiens) was 2.1 ± 0.7 µM. The “Selectivity index (SI)” value ([8]; SI = IC50[FGH]/IC50[MDA-MB-231]) was 1.2, the “Selectivity index (SI)” value ([8]; SI = IC50[PNT-2]/IC50[MDA-MB-231]) was 1.5 and the IC50 [9, 13] was 3.2 ± 0.5 µM. For the same molecule, the IC50 ([10]; Homo sapiens) was 3.7 ± 0.6 µM, the “Selectivity index (SI)” value ([10]; SI = IC50[FGH]/IC50[A-375]) was 0.7 and the “Selectivity index (SI)” value ([10]; SI = IC50[PNT-2]/IC50[A-375]) was 0.9. The IC50 [12] was 2.1 ± 0.8 µM, the “Selectivity index (SI)” value ([12]; SI = IC50[FGH]/IC50[Caco-2]) was 1.2 and the “Selectivity index (SI)” value ([12]; SI = IC50[PNT-2]/IC50[Caco-2]) was 1.5. The IC50 ([11]; Homo sapiens) was 2.6 ± 0.3 µM, the “Selectivity index (SI)” value ([11]; SI = IC50[FGH]/IC50[PC-3]) was 1.0 and the “Selectivity index (SI)” value ([11]; SI = IC50[PNT-2]/IC50[PC-3]) was 1.2.
